According to ChEMBL document CHEMBL1201862, “PubChem BioAssay data set” (2004):
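Cultured in 96-well plates, cells were exposed to test compound for 48 hours across five concentrations. GI50: concentration for 50% inhibition of growth.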 Activity calls are given as the source filed them. Cut-off read from the data, not from the text of the source: active = GI50 up to about 1.1 µM and inactive = higher.

Legend:
Test in all cases: growth of human tumour cells (NCI), 48 h
OVCAR-4 = test system: OVCAR-4
SF-295 = test system: SF-295
OVCAR-5 = test system: OVCAR-5
HCT-116 = test system: HCT-116
TK-10 = test system: TK-10
LOX IMVI = test system: LOX IMVI
Malme-3M = test system: Malme-3M
SK-OV-3 = test system: SK-OV-3
A498 = test system: A498
NCI-H522 = test system: NCI-H522
NCI-H226 = test system: NCI-H226
CAKI-1 = test system: CAKI-1
UACC-257 = test system: UACC-257
OVCAR-3 = test system: OVCAR-3
M14 = test system: M14
IGROV-1 = test system: IGROV-1
HOP-62 = test system: HOP-62

Structure (SMILES)	GI50 (OVCAR-4)	GI50 (SF-295)	GI50 (OVCAR-5)	GI50 (HCT-116)	GI50 (TK-10)	GI50 (LOX IMVI)	GI50 (Malme-3M)	GI50 (SK-OV-3)	GI50 (A498)	GI50 (NCI-H522)	GI50 (NCI-H226)	GI50 (CAKI-1)	GI50 (UACC-257)	GI50 (OVCAR-3)	GI50 (M14)	GI50 (IGROV-1)	GI50 (HOP-62)
CN1NC(c2ccccc2)=C(C#N)C(=O)CC1c1ccc(F)cc1 (configuration not stated)	> 100 µM (inactive)	> 100 µM (inactive)	> 100 µM (inactive)	> 100 µM (inactive)	> 100 µM (inactive)	> 100 µM (inactive)	> 100 µM (inactive)	> 100 µM (inactive)	> 100 µM (inactive)	62.4 µM (inactive)	> 100 µM (inactive)	> 100 µM (inactive)	> 100 µM (inactive)	–	–	–	–
NC1CCCCC1.O=C(O)C1(P(=O)(O)O)CC1	> 100 µM (inactive)	> 100 µM (inactive)	–	> 100 µM (inactive)	> 100 µM (inactive)	–	> 100 µM (inactive)	> 100 µM (inactive)	> 100 µM (inactive)	> 100 µM (inactive)	–	> 100 µM (inactive)	> 100 µM (inactive)	> 100 µM (inactive)	25.5 µM (inactive)	> 100 µM (inactive)	> 100 µM (inactive)
O=S(=O)(N/N=C/c1cccc(/C=N/NS(=O)(=O)c2ccccc2)c1)c1ccccc1	77.8 µM (inactive)	28 µM (inactive)	> 100 µM (inactive)	83.9 µM (inactive)	47.8 µM (inactive)	30 µM (inactive)	> 100 µM (inactive)	> 100 µM (inactive)	> 100 µM (inactive)	–	> 100 µM (inactive)	–	39.3 µM (inactive)	54.8 µM (inactive)	> 100 µM (inactive)	69.2 µM (inactive)	> 100 µM (inactive)
Cc1[nH]c2ccccc2c1-c1n[nH]c(=O)c2ccccc12	29.3 µM (inactive)	23.3 µM (inactive)	46.5 µM (inactive)	13.3 µM (inactive)	37.1 µM (inactive)	–	22.3 µM (inactive)	25.1 µM (inactive)	19.8 µM (inactive)	–	18.7 µM (inactive)	13.4 µM (inactive)	25.1 µM (inactive)	23.3 µM (inactive)	21 µM (inactive)	31.5 µM (inactive)	6.56 µM (inactive)
CCOC(=O)/C=C1\CCCC12OCCO2	> 100 µM (inactive)	–	–	54.1 µM (inactive)	> 100 µM (inactive)	–	> 100 µM (inactive)	> 100 µM (inactive)	> 100 µM (inactive)	2.87 µM (inactive)	> 100 µM (inactive)	> 100 µM (inactive)	> 100 µM (inactive)	28 µM (inactive)	> 100 µM (inactive)	> 100 µM (inactive)	> 100 µM (inactive)
S=C1ON=C(c2ccccc2)/C1=C/Nc1ccccc1	9.62 µM (inactive)	> 100 µM (inactive)	> 100 µM (inactive)	–	> 100 µM (inactive)	> 100 µM (inactive)	77.1 µM (inactive)	> 100 µM (inactive)	5.69 µM (inactive)	> 100 µM (inactive)	–	> 100 µM (inactive)	> 100 µM (inactive)	–	> 100 µM (inactive)	> 100 µM (inactive)	–
O=c1c(C(c2ccc([N+](=O)[O-])cc2)c2c(O)c3ccccc3n(-c3ccccc3)c2=O)c(O)c2ccccc2n1-c1ccccc1	59.7 µM (inactive)	12.5 µM (inactive)	51.9 µM (inactive)	18.7 µM (inactive)	44 µM (inactive)	11.8 µM (inactive)	13 µM (inactive)	7.38 µM (inactive)	–	22.2 µM (inactive)	24.1 µM (inactive)	44.4 µM (inactive)	–	24.1 µM (inactive)	–	6.56 µM (inactive)	14.5 µM (inactive)
CC1(C)CCc2cc3c(-c4ccccc4)cc(=O)oc3cc2O1	–	48.3 µM (inactive)	–	–	> 100 µM (inactive)	> 100 µM (inactive)	> 100 µM (inactive)	> 100 µM (inactive)	> 100 µM (inactive)	> 100 µM (inactive)	> 100 µM (inactive)	> 100 µM (inactive)	–	> 100 µM (inactive)	> 100 µM (inactive)	> 100 µM (inactive)	–
CNC(C)(C)Cc1ccc(Cl)cc1	> 100 µM (inactive)	> 100 µM (inactive)	–	> 100 µM (inactive)	> 100 µM (inactive)	> 100 µM (inactive)	> 100 µM (inactive)	> 100 µM (inactive)	> 100 µM (inactive)	> 100 µM (inactive)	–	> 100 µM (inactive)	> 100 µM (inactive)	> 100 µM (inactive)	> 100 µM (inactive)	> 100 µM (inactive)	> 100 µM (inactive)
NC(=O)C(=O)C1C(=O)N(c2ccccc2)N=C1N (configuration not stated)	> 100 µM (inactive)	> 100 µM (inactive)	> 100 µM (inactive)	> 100 µM (inactive)	> 100 µM (inactive)	> 100 µM (inactive)	> 100 µM (inactive)	> 100 µM (inactive)	–	> 100 µM (inactive)	> 100 µM (inactive)	> 100 µM (inactive)	> 100 µM (inactive)	> 100 µM (inactive)	> 100 µM (inactive)	> 100 µM (inactive)	> 100 µM (inactive)
CC(C)C(C(=O)O)N(CC1(O)OCC(O)C(O)C1O)N=O (configuration not stated)	–	–	> 100 µM (inactive)	> 100 µM (inactive)	> 100 µM (inactive)	> 100 µM (inactive)	> 100 µM (inactive)	> 100 µM (inactive)	> 100 µM (inactive)	> 100 µM (inactive)	–	–	> 100 µM (inactive)	> 100 µM (inactive)	> 100 µM (inactive)	> 100 µM (inactive)	> 100 µM (inactive)
CSc1nc2c(nc(N)n2C2OC(COC(C)=O)C(OC(C)=O)C(OC(C)=O)C2OC(C)=O)c(=O)n1C (configuration not stated)	> 100 µM (inactive)	> 100 µM (inactive)	> 100 µM (inactive)	> 100 µM (inactive)	> 100 µM (inactive)	> 100 µM (inactive)	> 100 µM (inactive)	> 100 µM (inactive)	> 100 µM (inactive)	–	> 100 µM (inactive)	> 100 µM (inactive)	> 100 µM (inactive)	> 100 µM (inactive)	> 100 µM (inactive)	> 100 µM (inactive)	> 100 µM (inactive)
CC(=O)OCCOCNC(=S)N/N=C/c1cc(Br)cs1	> 100 µM (inactive)	> 100 µM (inactive)	> 100 µM (inactive)	> 100 µM (inactive)	> 100 µM (inactive)	> 100 µM (inactive)	> 100 µM (inactive)	> 100 µM (inactive)	> 100 µM (inactive)	> 100 µM (inactive)	> 100 µM (inactive)	–	> 100 µM (inactive)	> 100 µM (inactive)	> 100 µM (inactive)	> 100 µM (inactive)	> 100 µM (inactive)
CC(C)(C)NCC(COc1ccc([N+](=O)[O-])cc1)OP(c1ccccc1)c1ccccc1 (configuration not stated)	–	23.7 µM (inactive)	82.4 µM (inactive)	33 µM (inactive)	43.9 µM (inactive)	11 µM (inactive)	25 µM (inactive)	60.5 µM (inactive)	44.7 µM (inactive)	19.3 µM (inactive)	29 µM (inactive)	28.8 µM (inactive)	44 µM (inactive)	34 µM (inactive)	26.8 µM (inactive)	53.3 µM (inactive)	> 100 µM (inactive)
CN(C)CC1(C)CC/C(=C\c2ccc3c(c2)OCO3)C1=O (configuration not stated)	> 100 µM (inactive)	> 100 µM (inactive)	> 100 µM (inactive)	> 100 µM (inactive)	> 100 µM (inactive)	> 100 µM (inactive)	> 100 µM (inactive)	–	> 100 µM (inactive)	39.5 µM (inactive)	> 100 µM (inactive)	6.58 µM (inactive)	> 100 µM (inactive)	> 100 µM (inactive)	> 100 µM (inactive)	> 100 µM (inactive)	> 100 µM (inactive)
Clc1ccc2c(c1)-c1c3c(nn1-c1ccccc1)-c1ccccc1SC3O2 (configuration not stated)	–	> 100 µM (inactive)	> 100 µM (inactive)	> 100 µM (inactive)	> 100 µM (inactive)	71.3 µM (inactive)	> 100 µM (inactive)	> 100 µM (inactive)	> 100 µM (inactive)	29 µM (inactive)	–	–	> 100 µM (inactive)	> 100 µM (inactive)	–	> 100 µM (inactive)	> 100 µM (inactive)
NC1CCC2(O)c3ccccc3C2C1 (configuration not stated)	> 100 µM (inactive)	> 100 µM (inactive)	–	> 100 µM (inactive)	> 100 µM (inactive)	> 100 µM (inactive)	> 100 µM (inactive)	> 100 µM (inactive)	–	> 100 µM (inactive)	> 100 µM (inactive)	–	> 100 µM (inactive)	–	> 100 µM (inactive)	–	> 100 µM (inactive)
O=c1c2ccccc2[nH]c2cc(O)cc(O)c12	> 100 µM (inactive)	42.9 µM (inactive)	–	55.6 µM (inactive)	> 100 µM (inactive)	32.1 µM (inactive)	56.8 µM (inactive)	85.5 µM (inactive)	–	16.9 µM (inactive)	27.2 µM (inactive)	–	45 µM (inactive)	53.1 µM (inactive)	91 µM (inactive)	< 0.01 µM (active)	–
NC(N)=NN/C(=C1/N=c2ccc([N+](=O)[O-])cc2=NC1=O)C(O)c1ccco1 (configuration not stated)	> 100 µM (inactive)	> 100 µM (inactive)	> 100 µM (inactive)	> 100 µM (inactive)	> 100 µM (inactive)	> 100 µM (inactive)	> 100 µM (inactive)	> 100 µM (inactive)	> 100 µM (inactive)	32.8 µM (inactive)	> 100 µM (inactive)	> 100 µM (inactive)	> 100 µM (inactive)	–	> 100 µM (inactive)	> 100 µM (inactive)	> 100 µM (inactive)
